Read-outs that look alike come from different tables or passages of the source. Starred links: 1 amine or outer side, 2 acyl side, 3 side chain; linkers in the order of their positions; H or OH if unused. Non-standard residues stand in square brackets, D forms with d. Groups on a side chain read outwards from the residue. *: point of attachment. C20 diacid = O=C(O)CCCCCCCCCCCCCCCCCCC(=O)*; C18 diacid = O=C(O)CCCCCCCCCCCCCCCCC(=O)*; αMePhe(2-F) = C[C@](N)(Cc1ccccc1F)C(=O)O; γGlu = O=C(O)[C@H](CCC(=O)[*:2])N[*:1]; αMeY = C[C@](N)(Cc1ccc(O)cc1)C(=O)O; 4Pal = N[C@@H](Cc1ccncc1)C(=O)O; αMeL = CC(C)C[C@](C)(N)C(=O)O; αMeS = C[C@](N)(CO)C(=O)O; Orn = NCCC[C@H](N)C(=O)O; AEEA = NCCOCCOCC(=O)O; Aib = CC(C)(N)C(=O)O
Assays:
hGIPR [1] = target: T1, hGIPR (Homo sapiens, UniProt P48546); assay: Functional cAMP activity in the presence of 1% HSA; assay type: cell-based; details: read-out: cAMP Rel EC50, hGIPR
T1 sequence (P48546 22-466): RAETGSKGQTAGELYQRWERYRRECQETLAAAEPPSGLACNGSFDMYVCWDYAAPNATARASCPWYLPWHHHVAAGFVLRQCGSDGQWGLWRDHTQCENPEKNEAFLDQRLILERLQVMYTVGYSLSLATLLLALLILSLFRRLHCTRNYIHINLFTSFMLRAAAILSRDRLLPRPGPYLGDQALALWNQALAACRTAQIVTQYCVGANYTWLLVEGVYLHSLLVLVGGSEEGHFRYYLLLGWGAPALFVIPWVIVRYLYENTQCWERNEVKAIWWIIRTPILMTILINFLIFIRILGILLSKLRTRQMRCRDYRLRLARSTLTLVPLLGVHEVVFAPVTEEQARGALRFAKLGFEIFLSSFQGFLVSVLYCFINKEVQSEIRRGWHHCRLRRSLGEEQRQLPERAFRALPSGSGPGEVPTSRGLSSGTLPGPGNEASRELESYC

hGLP-1R [2] = target: T2, hGLP-1R (Homo sapiens, UniProt P43220); assay: Functional cAMP activity in the presence of 1% HSA; assay type: cell-based; details: read-out: cAMP Rel EC50, hGLP-1R
Target sequence in this assay (P43220 24-463): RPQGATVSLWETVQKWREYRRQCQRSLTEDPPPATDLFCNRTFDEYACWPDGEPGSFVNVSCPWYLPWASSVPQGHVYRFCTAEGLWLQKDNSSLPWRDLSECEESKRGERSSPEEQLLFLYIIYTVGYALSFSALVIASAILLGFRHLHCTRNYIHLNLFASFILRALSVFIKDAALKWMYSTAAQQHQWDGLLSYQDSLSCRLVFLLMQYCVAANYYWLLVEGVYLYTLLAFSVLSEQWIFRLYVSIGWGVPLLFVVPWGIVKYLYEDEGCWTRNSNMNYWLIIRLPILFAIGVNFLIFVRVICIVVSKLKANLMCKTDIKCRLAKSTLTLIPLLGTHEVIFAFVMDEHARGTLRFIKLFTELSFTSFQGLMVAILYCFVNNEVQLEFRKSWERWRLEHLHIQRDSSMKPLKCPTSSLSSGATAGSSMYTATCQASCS

human GcgR = human GcgR (Homo sapiens, UniProt P47871); assay: Functional cAMP activity in the presence of 1% HSA; assay type: cell-based; details: read-out: cAMP Rel EC50, hGcgR
Sequence of human GcgR (P47871 26-477): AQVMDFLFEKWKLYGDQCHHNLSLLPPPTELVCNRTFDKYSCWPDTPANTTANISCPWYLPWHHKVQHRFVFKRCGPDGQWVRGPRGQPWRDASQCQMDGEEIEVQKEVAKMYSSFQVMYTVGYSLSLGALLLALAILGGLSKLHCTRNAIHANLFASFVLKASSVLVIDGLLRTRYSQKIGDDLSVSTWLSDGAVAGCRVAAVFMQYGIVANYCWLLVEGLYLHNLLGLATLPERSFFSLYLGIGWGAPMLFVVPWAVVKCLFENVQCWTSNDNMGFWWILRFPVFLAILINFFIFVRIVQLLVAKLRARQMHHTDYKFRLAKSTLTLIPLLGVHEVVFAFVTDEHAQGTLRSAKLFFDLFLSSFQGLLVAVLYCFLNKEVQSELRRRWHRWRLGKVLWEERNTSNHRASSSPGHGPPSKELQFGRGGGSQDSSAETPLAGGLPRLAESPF

hGIPR [3] = target: T1, hGIPR; assay: Functional cAMP activation in the presence of 0.1% casein (no HSA); assay type: cell-based; details: read-out: Relative cAMP EC50, hGIPR;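 as to Relative cAMP EC50, hGIPR: intracellular cAMP rise after 30 min at 37 °C read by HTRF against a standard curve, scaled between buffer alone (0%) and top control ligand concentration (100%), four-parameter fit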;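 as to Relative cAMP EC50, hGLP-1R: intracellular cAMP rise after 30 min at 37 °C read by HTRF, normalized between buffer only (0%) and maximal control ligand (100%), four-parameter variable-slope fit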;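 as to Relative cAMP EC50, hGcgR: intracellular cAMP rise after 30 min at 37 °C, read by HTRF against a cAMP standard curve, scaled from buffer only (0%) to maximal control ligand response (100%)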
hGLP-1R [4] = target: T2, hGLP-1R; assay: as above; assay type: cell-based; details: read-out: Relative cAMP EC50, hGLP-1R
Target sequence in this assay (P43220 24-463): as the sequence (P43220 24-463) above

hGcgR = hGcgR (Homo sapiens, UniProt P47871); assay: as above; assay type: cell-based; details: read-out: Relative cAMP EC50, hGcgR;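 also: intracellular cAMP rise after 30 min at 37 °C, read by HTRF against a cAMP standard curve, scaled from buffer only (0%) to maximal control ligand response (100%)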
Sequence of hGcgR (P47871 26-477): as the sequence (P47871 26-477) above

hGLP-1R [5] = target: T2, hGLP-1R; assay: GLP-1R CHO cell β-arrestin recruitment assay; assay type: cell-based; parameters: host or cells: CHO-K1 (PathHunter, assay-ready frozen cells); details: for EC50: CHO-K1 PathHunter, β-arrestin-2, 0.1% casein, read-out: hGLP1R β-arrestin Rel EC50; for % Stimulation Max: normalized to GLP-1(7-36) as maximum control;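 as to all read-outs here: luminescence read after 90 min peptide exposure at 37 °C and a further 60 min with detection reagent at room temperature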
Target sequence in this assay (P43220 24-463): as the sequence (P43220 24-463) above
Target sequence in this assay (P32121 whole entry partner): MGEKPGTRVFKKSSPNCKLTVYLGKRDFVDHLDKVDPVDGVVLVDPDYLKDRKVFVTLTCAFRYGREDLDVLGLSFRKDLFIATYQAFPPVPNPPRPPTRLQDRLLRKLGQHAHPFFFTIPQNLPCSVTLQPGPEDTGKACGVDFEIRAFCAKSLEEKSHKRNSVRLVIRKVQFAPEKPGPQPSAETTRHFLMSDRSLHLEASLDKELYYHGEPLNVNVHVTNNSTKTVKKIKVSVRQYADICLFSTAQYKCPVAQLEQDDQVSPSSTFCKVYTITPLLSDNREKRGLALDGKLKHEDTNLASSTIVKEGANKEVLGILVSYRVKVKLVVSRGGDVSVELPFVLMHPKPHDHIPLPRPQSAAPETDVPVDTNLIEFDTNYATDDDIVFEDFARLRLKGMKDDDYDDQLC

human GLP1-R = human GLP1-R (Homo sapiens, UniProt P43220); assay: GLP1-R internalization assay in HEK293 cells; assay type: cell-based
Sequence of human GLP1-R (P43220 24-463): as the sequence (P43220 24-463) above

[6] = Body weight in diet-induced obese C57BL/6 mice; assay type: in vivo; details: 10 nmol/kg SC QD, 9 days, percent of starting weight, DIO mice, mean ± SEM n=5
Protocol: To investigate the effect of the polypeptides as described herein on weight loss, exemplary polypeptides are dosed to C57BL/6 diet-induced obese (DIO) mice. Specifically, DIO male C57BL/6 mice (Taconic, Germantown, NY) maintained on a calorie-rich diet are used in the following studies. Mice are individually housed in a temperature-controlled (24° C.) facility with 12-hour light/dark cycle (lights on 22:00) and free access to food (TD95217) and water. After a minimum of 2 weeks acclimation to the facility, the mice are randomized according to their body weight, so each experimental group of animals would have similar starting body weight. The body weights range from 41 to 50 g. All groups contain 5 mice. […] Treatments are administered by subcutaneous (SC) injection (10 mL/kg) to ad libitum fed DIO mice 30 to 90 minutes prior to the onset of the dark cycle either once daily (QD) or once every 3 days (Q3D) for 9-16 days. Body weight and food intake are measured daily throughout the study. Body weight is presented as percent of the starting weight. […] Data are presented as mean±SEM of 5 animals per group in Table 7 below. Statistical analysis is performed using repeated measures ANOVA, followed by Dunnett's method comparison test.

[7] = in the presence of 0.1% casein (no HSA), geometric mean

Substance	EC50 (hGIPR [1])	EC50 (hGLP-1R [2])	EC50 (human GcgR)	EC50 (hGIPR [3]; [7])	EC50 (hGLP-1R [4]; [7])	EC50 (hGcgR; [7])	EC50 (hGLP-1R [5])	% Stimulation Max (hGLP-1R [5])	EC50 (human GLP1-R; HEK293 cells expressing SNAP-GLP-1R, read-out: GLP1R Internalization EC50)	Internalization % TOP (human GLP1-R; normalized to maximum concentration of GLP-1 (100%))	EC50 (hGIPR [3])	EC50 (hGLP-1R [4])	EC50 (hGcgR)	Internalization % TOP (human GLP1-R)	Body weight (%) [6]
H-Y[Aib]QGTFTSDYSI[αMeL]LDKK([AEEA-AEEA-γGlu-C20 diacid])AA[Aib]AFIEYLLEGGPSSGEPPPSEG-NH2 [Example 294]	54.1 nM	554 nM	518 nM	0.318 nM	2.16 nM	1.07 nM	27.7 nM	35.3%	–	–	–	–	–	–	–
H-Y[Aib]QGTFTSDYSI[αMeL]LDKQAAK([AEEA-AEEA-γGlu-C20 diacid])AFVEWLLAGGPSSGEPPPSEG-NH2 [Example 305]	92.4 nM	415 nM	1500 nM	1 nM	1.48 nM	6.73 nM	23.3 nM	58.3%	–	–	–	–	–	–	–
H-H[Aib]QGT[αMePhe(2-F)]TSDYSILLDKK([AEEA-γGlu-C20 diacid])AA[Aib]AFIEYLIEAGPSSGEPPPSEG-NH2 [Example 298]	41.3 nM	70.9 nM	1570 nM	0.138 nM	0.277 nM	1.04 nM	3.29 nM	86.4%	–	–	–	–	–	–	–
Tirzepatide [reference compound]	–	–	–	–	–	–	–	10.5%	–	–	–	–	–	60.3%	–

Continued by falling EC50 (hGIPR [1]), values first:

EC50 (hGIPR [1])	EC50 (hGLP-1R [2])	EC50 (human GcgR)	EC50 (hGIPR [3]; [7])	EC50 (hGLP-1R [4]; [7])	EC50 (hGcgR; [7])	EC50 (hGLP-1R [5])	% Stimulation Max (hGLP-1R [5])	EC50 (human GLP1-R; HEK293 cells expressing SNAP-GLP-1R, read-out: GLP1R Internalization EC50)	Internalization % TOP (human GLP1-R; normalized to maximum concentration of GLP-1 (100%))	EC50 (hGIPR [3])	EC50 (hGLP-1R [4])	EC50 (hGcgR)	Substance	Internalization % TOP (human GLP1-R)	Body weight (%) [6]
37.7 nM	293 nM	1440 nM	0.232 nM	1.56 nM	6.04 nM	10.8 nM	44%	28.2 nM	84.8%	–	–	–	H-Y[Aib]QGTFTSDYSI[αMeL]LDKIAAK([AEEA-AEEA-γGlu-C20 diacid])QFVQWLIE[Aib]GPSSGEPPPSEG-NH2 [Example 323]	–	–
26.1 nM	1080 nM	2500 nM	0.113 nM	3.36 nM	2.08 nM	19.2 nM	39.6%	–	–	–	–	–	H-Y[Aib]QGT[αMePhe(2-F)]TSDYSKILDKIAQK([AEEA-γGlu-C20 diacid])AFIEYLLEGGPSSGEPPPSEG-NH2 [Example 311]	–	–
9.63 nM	295 nM	1740 nM	0.0587 nM	0.994 nM	4.01 nM	11.9 nM	54.6%	–	–	–	–	–	H-Y[Aib]QGT[αMePhe(2-F)]TSDYSILLDKIAQK([AEEA-γGlu-C20 diacid])AFIEYLLEGGPSSGEPPPSEG-NH2 [Example 293]	–	–
0.861 nM	9.8 nM	262 nM	–	–	–	–	–	–	–	0.0159 nM	0.183 nM	3.05 nM	H-Y[Aib]QGT[αMePhe(2-F)]TSD[4Pal][αMeS]I[αMeL]LD[Orn]K([AEEA-AEEA-γGlu-C18 diacid])AQ[Aib][Orn]FI[dE][αMeY]LIEGGPSSGEPPPSEG-NH2 [Example 490]	–	80.75 ± 3.23 %
